Laboratory results: article PMC9848300, “Discovery of novel enasidenib analogues targeting inhibition of mutant isocitrate dehydrogenase 2 as antileukaemic agents” (Journal of Enzyme Inhibition and Medicinal Chemistry, 2023)

Legend:
Assay type in all cases: cell-based
[1] = test system: MOLT-4; assay: NCI 60 antitumor screening (single dose / five doses); settings: Homo sapiens; MOLT-4 (leukaemia), single dose 10 μM; read-out: Growth inhibition percentage (GI %)
[2] = test system: RPMI-8226; assay: as above; settings: Homo sapiens; RPMI-8226 (leukaemia), single dose 10 μM; read-out: Growth inhibition percentage (GI %)
[3] = test system: A549/ATCC; assay: NCI 60 antitumor screening (single dose); settings: Homo sapiens; A549/ATCC (non-small cell lung cancer), single dose 10 μM; read-out: Growth inhibition percentage (GI %)
Procedure: (§1) Initially, the anticancer effects of target compounds have been assessed at a single (10 μM) dose. The obtained data have been reported as mean-graph of the percent growth (G%) of the treated cancer cells. Percentage growth inhibition (GI%) is calculated (100 − G%) and pronounced in Table 1. […] Target compounds in series (III) with manipulated linkers disclosed lower potency. Superiorly, eight s-triazine derivatives from the three series (6a, 6c, 6d, 7a, 7g, 7i, 7l, and 8b) have shown potent broad-spectrum anticancer activity against most the examined cell lines, whereas most of the remaining triazine derivatives, 20 derivatives, have exerted selective anti-proliferative actions towards certain cancer cell lines (Supplementary).
(§2) The antitumor screening was performed for 60 human cancer cell lines under the protocol of NCI (www.dtp.nci.nih.gov), the Drug Evaluation Branch, Bethesda, MD. All submitted compounds were nominated based on the degree of structural diversity and computer modelling techniques for evaluation of their anticancer activity. The screening process for antineoplastic activity passes through two successive levels, starting with the assessment of target compounds at a single dose of 10 μM against 60 cancer cell lines on nine types of human tumours. These experiments were done on a triplicate following. The output from the single‐dose screening was covered as a mean graph, and then, analysed by the COMPARE program. Finally, the compounds which disclosed subpanel cancer cell growth (G %) equal to or less than 10% in at least eight cancer cell lines get to pass the assessment against the 60 cell lines at five doses (0.01–100 μM). By using GraphPad Prism version 9.0 (Graphpad Software Inc., La Jolla, CA), GI50, TGI, as well as LC50 dose‐response parameters were computed and presented for each compound (Supplementary information)[55–57].

[4] = test system: CAKI-1; assay: NCI 60 antitumor screening (single dose); settings: Homo sapiens; CAKI-1 (renal cancer), single dose 10 μM; read-out: Growth inhibition percentage (GI %)
Procedure: as §1, §2

[5] = test system: HCC-2998; assay: NCI 60 antitumor screening (single dose); settings: Homo sapiens; HCC-2998 (colon cancer), single dose 10 μM; read-out: Growth inhibition percentage (GI %)
Procedure: as §1, §2

[6] = test system: HOP-62; assay: NCI 60 antitumor screening (single dose); settings: Homo sapiens; HOP-62 (non-small cell lung cancer), single dose 10 μM; read-out: Growth inhibition percentage (GI %)
Procedure: as §1, §2

[7] = test system: KM 12; assay: NCI 60 antitumor screening (single dose); settings: Homo sapiens, KM12; KM 12 (colon cancer), single dose 10 μM; read-out: Growth inhibition percentage (GI %)
Procedure: as §1, §2

[8] = test system: MCF7; assay: NCI 60 antitumor screening (single dose); settings: Homo sapiens; MCF7 (breast cancer), single dose 10 μM; read-out: Growth inhibition percentage (GI %)
Procedure: as §1, §2

[9] = test system: NCI-H226; assay: NCI 60 antitumor screening (single dose); settings: Homo sapiens; NCI-H226 (non-small cell lung cancer), single dose 10 μM; read-out: Growth inhibition percentage (GI %)
Procedure: as §1, §2

[10] = test system: NCI-H23; assay: NCI 60 antitumor screening (single dose); settings: Homo sapiens; NCI-H23 (non-small cell lung cancer), single dose 10 μM; read-out: Growth inhibition percentage (GI %)
Procedure: as §1, §2

[11] = test system: NCI-H322M; assay: NCI 60 antitumor screening (single dose); settings: Homo sapiens; NCI-H322M (non-small cell lung cancer), single dose 10 μM; read-out: Growth inhibition percentage (GI %)
Procedure: as §1, §2

[12] = test system: NCI-H522; assay: NCI 60 antitumor screening (single dose); settings: Homo sapiens; NCI-H522 (non-small cell lung cancer), single dose 10 μM; read-out: Growth inhibition percentage (GI %)
Procedure: as §1, §2

[13] = test system: OVCAR-3; assay: NCI 60 antitumor screening (single dose); settings: Homo sapiens; OVCAR-3 (ovarian cancer), single dose 10 μM; read-out: Growth inhibition percentage (GI %)
Procedure: as §1, §2

[14] = test system: OVCAR-4; assay: NCI 60 antitumor screening (single dose); settings: Homo sapiens; OVCAR-4 (ovarian cancer), single dose 10 μM; read-out: Growth inhibition percentage (GI %)
Procedure: as §1, §2

[15] = test system: OVCAR-5; assay: NCI 60 antitumor screening (single dose); settings: Homo sapiens; OVCAR-5 (ovarian cancer), single dose 10 μM; read-out: Growth inhibition percentage (GI %)
Procedure: as §1, §2

[16] = test system: OVCAR-8; assay: NCI 60 antitumor screening (single dose); settings: Homo sapiens; OVCAR-8 (ovarian cancer), single dose 10 μM; read-out: Growth inhibition percentage (GI %)
Procedure: as §1, §2

[17] = test system: SF-268; assay: NCI 60 antitumor screening (single dose); settings: Homo sapiens; SF-268 (CNS cancer), single dose 10 μM; read-out: Growth inhibition percentage (GI %)
Procedure: as §1, §2

[18] = test system: SNB-19; assay: NCI 60 antitumor screening (single dose); settings: Homo sapiens; SNB-19 (CNS cancer), single dose 10 μM; read-out: Growth inhibition percentage (GI %)
Procedure: as §1, §2

[19] = test system: TK-10; assay: NCI 60 antitumor screening (single dose); settings: Homo sapiens; TK-10 (renal cancer), single dose 10 μM; read-out: Growth inhibition percentage (GI %)
Procedure: as §1, §2

[20] = test system: U251; assay: NCI 60 antitumor screening (single dose); settings: Homo sapiens, U-251; U251 (CNS cancer), single dose 10 μM; read-out: Growth inhibition percentage (GI %)
Procedure: as §1, §2

[21] = test system: HCT-116; assay: NCI 60 antitumor screening (single dose / five doses); settings: Homo sapiens; HCT-116 (colon cancer), single dose 10 μM; read-out: Growth inhibition percentage (GI %)
[22] = test system: HCT-15; assay: as above; settings: Homo sapiens; HCT-15 (colon cancer), single dose 10 μM; read-out: Growth inhibition percentage (GI %)
[23] = test system: 786-0; assay: as above; settings: Homo sapiens, 786-0, 786-0 (renal cancer), single dose 10 μM; read-out: Growth inhibition percentage (GI %)
[24] = test system: UO-31; assay: as above; settings: Homo sapiens; UO-31 (renal cancer), single dose 10 μM; read-out: Growth inhibition percentage (GI %)
[25] = test system: BT-549; assay: as above; settings: Homo sapiens; BT-549 (breast cancer), single dose 10 μM; read-out: Growth inhibition percentage (GI %)
[26] = test system: T-47D; assay: as above; settings: Homo sapiens, T47D; T-47D (breast cancer), single dose 10 μM; read-out: Growth inhibition percentage (GI %)
[27] = test system: M14; assay: NCI 60 antitumor screening (single dose); settings: Homo sapiens; M14 (melanoma), single dose 10 μM; read-out: Growth inhibition percentage (GI %)
Procedure: as §1, §2

SMILES	inhibition at 10 µM [1]	inhibition at 10 µM [2]	inhibition at 10 µM [3]	inhibition at 10 µM [4]	inhibition at 10 µM [5]	inhibition at 10 µM [6]	inhibition at 10 µM [7]	inhibition at 10 µM [8]	inhibition at 10 µM [9]	inhibition at 10 µM [10]	inhibition at 10 µM [11]	inhibition at 10 µM [12]	inhibition at 10 µM [13]	inhibition at 10 µM [14]	inhibition at 10 µM [15]	inhibition at 10 µM [16]	inhibition at 10 µM [17]	inhibition at 10 µM [18]	inhibition at 10 µM [19]	inhibition at 10 µM [20]	further results
Brc1ccccc1/C=N/Nc1nc(N/N=C/c2ccccc2Br)nc(N2CCOCC2)n1 [compound 6b, 2,4-Bis[(E)-2-[(2-bromophenyl)methylidene]hydrazin-1-yl]-6-(morpholin-4-yl)-1,3,5-triazine]	27.4%	35%	2.89%	-8.66%	29.1%	-8.36%	10.9%	14.8%	4.87%	-4.52%	3.22%	13.4%	14.8%	3.79%	-11.2%	3.39%	-2.5%	-1.04%	0.58%	3.53%	inhibition at 10 µM [21]: 2.53%; inhibition at 10 µM [22]: 18.9%; inhibition at 10 µM [23]: 38.7%; inhibition at 10 µM [24]: 21.4%; inhibition at 10 µM [25]: -6.54%; inhibition at 10 µM [26]: 21%
Oc1ccccc1/C=N/Nc1nc(N/N=C/c2ccccc2O)nc(N2CCCCC2)n1 [compound 7a, 2-[(1e)-(2-{4-[(E)-2-[(2-Hydroxyphenyl)methylidene]hydrazin-1-yl]-6-(piperidin-1-yl)-1,3,5-triazin-2-yl}hydrazin-1-ylidene)methyl] phenol]	59.1%	57.4%	52.2%	24.5%	60.4%	44.2%	52.5%	64.3%	18.2%	44.2%	41.1%	52.5%	80.8%	70.9%	28.4%	50.4%	45.7%	44%	2.29%	49.6%	inhibition at 10 µM [27]: 53.6%; inhibition at 10 µM [21]: 22%; inhibition at 10 µM [22]: 22.6%; inhibition at 10 µM [23]: 26.8%; inhibition at 10 µM [24]: 51.7%; inhibition at 10 µM [26]: 51.8%
Brc1cccc(/C=N/Nc2nc(N/N=C/c3cccc(Br)c3)nc(N3CCCCC3)n2)c1 [compound 7c, 2,4-Bis[(E)-2-[(3-Bromophenyl)methylidene]hydrazin-1-yl]-6-(piperidin-1-yl)-1,3,5-triazine]	31.6%	11.8%	10.6%	0.79%	-2.01%	-8.46%	-6.72%	20.2%	8.12%	-5.83%	-3.53%	8.55%	0.95%	11.6%	-15.9%	2.62%	-5.8%	-2.24%	-27.6%	3.1%	inhibition at 10 µM [21]: 13.5%; inhibition at 10 µM [22]: 16.1%; inhibition at 10 µM [23]: 4.36%; inhibition at 10 µM [24]: 20.2%; inhibition at 10 µM [25]: -13.1%; inhibition at 10 µM [26]: 12.3%
Fc1cccc(/C=N/Nc2nc(N/N=C/c3cccc(F)c3)nc(N3CCCCC3)n2)c1 [compound 7e, 2,4-Bis[(E)-2-[(3-Fluorophenyl)methylidene]hydrazin-1-yl]-6-(piperidin-1-yl)-1,3,5-triazine]	40.4%	38.8%	10.6%	9.66%	0.77%	-7.48%	17.9%	26.7%	17.9%	9.62%	-8.36%	8.08%	10.6%	13.7%	-8.1%	14.6%	0.36%	3.96%	-20.6%	5.46%	inhibition at 10 µM [21]: 9.65%; inhibition at 10 µM [22]: 29.2%; inhibition at 10 µM [23]: 10.5%; inhibition at 10 µM [24]: 22.1%; inhibition at 10 µM [25]: -5.92%; inhibition at 10 µM [26]: 30.6%
COC(=O)C(Cc1ccccc1)Nc1nc(NC(Cc2ccccc2)C(=O)OC)nc(N2CCOCC2)n1 (stereo not shown) [compound 8c, Methyl 2-({4-[(1-methoxy-1-oxo-3-phenylpropan-2-yl)amino]-6-(morpholin-4-yl)-1,3,5-triazin-2-yl}amino)-3-phenylpropanoate]	-1.03%	1.47%	-8.33%	13.2%	-9.86%	2.66%	0.3%	2.21%	-1.61%	-6.51%	2.57%	9.02%	-11.1%	-6.53%	-6.25%	0.4%	-2.56%	-3.58%	-3.4%	-5.23%	inhibition at 10 µM [21]: 0.81%; inhibition at 10 µM [22]: -6.16%; inhibition at 10 µM [23]: -0.43%; inhibition at 10 µM [24]: 18.8%; inhibition at 10 µM [25]: -11.7%; inhibition at 10 µM [26]: -0.53%
